The subject of experiment [1] is polyphosphate-glucose phosphotransferase activity. The experiment in a line: C-6 phosphorylation with enzymatic extracts of other Mycobacterium strains (Example 3). To be noted: all the enzymatic preparations (five strains); acceptor 150 mM; 24 hours at 30°C.
Text: The bacterial strains used are the followings: • Mycobacterium phlei ATCC 11758, • Mycobacterium smegmatis DSMZ 43465 (equivalent to ATCC 607), • Mycobacterium smegmatis ATCC 607 (equivalent to DSMZ 43465) • Mycobacterium smegmatis ATCC 700084 (or mc^2 155) • Mycobacterium sp DSMZ 2966 (equivalent to NRRL B-3683)
Experiment [2] relates to polyphosphate-glucose phosphotransferase. To be noted: cited from earlier work; for activity as phosphoryl acceptor: Arthrobacter sp. strain KM, irrespective of the phosphoryl donor, polyphosphate or ATP.
Another experiment addresses T1, rat brain hexokinase (Rattus norvegicus, UniProt P05708).
T1 sequence (P05708 1-918): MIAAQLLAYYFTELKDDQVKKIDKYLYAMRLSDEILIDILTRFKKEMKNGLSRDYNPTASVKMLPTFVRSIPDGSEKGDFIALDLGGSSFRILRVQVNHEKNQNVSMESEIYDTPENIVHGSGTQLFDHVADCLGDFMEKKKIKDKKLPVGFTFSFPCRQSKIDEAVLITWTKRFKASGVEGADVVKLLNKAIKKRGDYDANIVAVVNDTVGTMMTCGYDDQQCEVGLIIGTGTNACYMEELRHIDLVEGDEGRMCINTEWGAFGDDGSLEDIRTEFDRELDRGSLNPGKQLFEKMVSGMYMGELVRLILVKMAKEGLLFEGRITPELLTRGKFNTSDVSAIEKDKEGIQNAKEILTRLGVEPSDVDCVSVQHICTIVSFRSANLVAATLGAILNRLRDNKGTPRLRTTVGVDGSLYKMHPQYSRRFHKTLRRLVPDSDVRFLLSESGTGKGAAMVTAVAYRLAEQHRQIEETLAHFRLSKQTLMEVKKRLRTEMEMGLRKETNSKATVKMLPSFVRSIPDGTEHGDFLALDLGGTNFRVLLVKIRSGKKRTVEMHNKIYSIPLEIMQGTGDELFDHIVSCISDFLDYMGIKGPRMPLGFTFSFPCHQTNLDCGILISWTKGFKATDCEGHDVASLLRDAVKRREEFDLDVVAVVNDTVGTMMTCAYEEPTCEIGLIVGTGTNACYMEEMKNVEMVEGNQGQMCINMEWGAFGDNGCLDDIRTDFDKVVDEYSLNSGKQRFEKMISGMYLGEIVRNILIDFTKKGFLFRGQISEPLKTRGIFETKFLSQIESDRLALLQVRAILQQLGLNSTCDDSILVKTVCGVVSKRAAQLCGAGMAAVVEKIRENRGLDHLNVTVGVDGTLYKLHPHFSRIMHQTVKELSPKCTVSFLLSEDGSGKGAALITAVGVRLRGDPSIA
To be noted: relative to glucose 6-phosphate; cited from earlier work.

The target in experiment [3] is polyphosphate-glucose phosphotransferase (Mycobacterium tuberculosis, UniProt P9WIN1). To be noted: cited from earlier work; for Ki: read-out: Ki (ATP inhibits at high concentration).
polyphosphate-glucose phosphotransferase (Mycobacterium tuberculosis, UniProt P9WIN1), sequence (P9WIN1 whole entry): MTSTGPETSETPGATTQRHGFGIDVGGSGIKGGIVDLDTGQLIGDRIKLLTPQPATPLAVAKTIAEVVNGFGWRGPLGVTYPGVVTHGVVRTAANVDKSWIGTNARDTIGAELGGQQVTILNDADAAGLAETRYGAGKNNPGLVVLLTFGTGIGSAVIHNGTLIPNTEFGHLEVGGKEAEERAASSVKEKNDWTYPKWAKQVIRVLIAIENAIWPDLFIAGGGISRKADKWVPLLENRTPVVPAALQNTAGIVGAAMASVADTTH
Experiment [4] relates to polyphosphate-glucose phosphotransferase. To be noted: cited from earlier work; for inhibition of the enzyme: donor ATP; for Km: pH 7.5, 30°C.
The test system is the same in experiment [5]. To be noted: acceptor glucose; cited from earlier work.
For experiment [6] the test system is unchanged. To be noted: acceptor D-glucose; label is the phosphate donor; Propionibacterium arabinosum enzyme; cited from earlier work.
In experiment [7] the test system is polyphosphate-glucose phosphotransferase activity. The experiment in a line: C-6 phosphorylation of acceptors with polyphosphate by an enzymatic extract, detected by thin layer chromatography (Examples 1 and 2). To be noted: Example 2; same synthesis and detection conditions as Example 1.
Experiment [8] deals with polyphosphate-glucose phosphotransferase. To be noted: donor ATP, acceptor D-glucose; cited from earlier work.
Where [9] appears, read: donor polyphosphate, acceptor D-glucose.

Consider 20 compounds from patent EP2150620B1, “Method for preparing C-6 phosphorylated D-aldohexoses and C-6 phosphorylated D-aldohexose derivatives, and new C-6 phosphorylated D-aldohexose derivatives” (Libragen, priority 2007, dated 2008).

Each structure is given as a SMILES string. Read-outs that look alike come from different tables or passages of the source.

For `O=CC[C@@H](O)[C@H](O)[C@H](O)COP(=O)(O)O` [2-deoxy-D-glucose-6-phosphate], the “synthesis of the phosphorylated product by the enzymatic preparations” value (“synthesis of the phosphorylated product” for short) in experiment [1] was “able to catalyze the synthesis”. For the compound `O=CC[C@@H](O)[C@H](O)[C@H](O)CO` [2-deoxy-D-glucose], the “activity as phosphoryl acceptor” value in experiment [2] is recorded as “inert”. On to `O=C[C@H](O)[C@@H](O)[C@H](O)[C@H](S)COP(=O)(O)O` [5-thioglucose 6-phosphate], for which the “inhibition constant Ki of rat brain hexokinase, lower than that seen with glucose 6-phosphate” value on rat brain hexokinase was 10 fold. Take `Nc1ncnc2c1ncn2[C@@H]1O[C@H](COP(=O)(O)OP(=O)(O)O)[C@@H](O)[C@H]1O` [ADP]: the “inhibition of the enzyme” value in [3] (donor ATP, acceptor D-glucose) was “inhibit”; in [4] (acceptor D-glucose) it was “inhibit”. For `Nc1ncnc2c1ncn2[C@@H]1O[C@H](COP(=O)(O)O)[C@@H](O)[C@H]1O` [AMP], in experiment [3] (donor ATP, acceptor D-glucose), the “inhibition of the enzyme” value is reported as “inhibit”.

Take `Nc1ncnc2c1ncn2[C@@H]1O[C@H](COP(=O)(O)OP(=O)(O)OP(=O)(O)O)[C@@H](O)[C@H]1O` [ATP, adenosine triphosphate]: in experiment [5], the “activity with phosphate donor” value is recorded as “No activity with ATP”. Moreover, the Turnover result is “Dimer: 2 x 30000 Turnover: 63 s^-1” in [6]; 116 s⁻¹ in experiment [3] (acceptor D-glucose, label is the phosphate donor); 25 s⁻¹ in experiment [4] (acceptor D-glucose, label is the phosphate donor, Propionibacterium shermanii enzyme). For the same compound, the Michaelis-Menten constant (Km) in experiment [3] (pH 7.5, donor ATP) is 880 µM; in experiment [3] (pH 8.6, donor ATP), 1400 µM; in experiment [4] (label is the phosphate donor) it was 1500 µM. Also, the Ki in [3] (pH 7.5, donor ATP) is 6.6 mM; in experiment [3] (pH 8.6, donor ATP) it was 7.4 mM. With `Nc1ccn([C@@H]2O[C@H](COP(=O)(O)OP(=O)(O)OP(=O)(O)O)[C@@H](O)[C@H]2O)c(=O)n1` [CTP], the Km in experiment [4] (label is the phosphate donor) is 5900 µM. For the compound `O=C[C@@H](O)[C@H](O)[C@H](O)[C@H](O)CO` [D-altrose], the “phosphorylation of the acceptor (new substance in the 24 hours-incubation medium)” value (“phosphorylation of the acceptor” below) in [7] is listed as “not phosphorylated”. For `O=C(CO)[C@@H](O)[C@H](O)[C@H](O)CO` [D-fructose], the “phosphorylation of the acceptor” value in experiment [7] is “not phosphorylated”. In addition, the “activity as phosphoryl acceptor” value in [2] is “inert”. For the compound `O=C[C@H](O)[C@@H](O)[C@@H](O)[C@H](O)CO` [D-galactose], the “phosphorylation of the acceptor” value in experiment [7] is listed as “not phosphorylated”. The “activity as phosphoryl acceptor” value in [2] was “inert”. Turning to `O=P(O)(O)OCC1OC(OP(=O)(O)O)C(O)C(O)C1O` [D-glucose-1,6-bisphosphate], the “synthesis of the phosphorylated product” value in [1] is reported as “could not be synthesized”. Regarding `O=P(O)(O)OC[C@H]1O[C@@H](S)[C@H](O)[C@@H](O)[C@@H]1O` [D-glucothiose-6-phosphate], the “synthesis of the phosphorylated product” value in [1] is “able to catalyze the synthesis”.

With `O=C[C@@H](O)[C@@H](O)[C@H](O)[C@H](O)CO` [D-mannose], the “activity as % of the activity with glucose” value in [2] (donor ATP) is on record as “About 30% of the activity with glucose”; in [2] (donor polyphosphate), approximately 40%. For the same compound, the Michaelis constant (Km) in experiment [2] (pH 7.0, 30°C, donor polyphosphate) was 150 µM. Consider `O=C[C@H](O)[C@H](O)[C@H](O)CO` [D-ribose], for which, in experiment [7], the “phosphorylation of the acceptor” value was “not phosphorylated”.

Take `O=C[C@H](O)[C@@H](O)[C@H](O)CO` [D-xylose]: the “inhibition of the enzyme” value in experiment [3] (donor ATP, acceptor D-glucose) was “inhibit”; in [4] (acceptor D-glucose), “inhibits”. With `O=C(CO)[C@@H](O)[C@H](O)[C@H](O)COP(=O)(O)O` [Fru6P], the “inhibition of the enzyme” value in [3] (donor ATP, acceptor D-glucose) is “inhibit”; in experiment [3] (setting [9]), “inhibit”.

Turning to `O=P(O)(O)OC[C@H]1OC(O)[C@H](O)[C@@H](O)[C@@H]1O` (stereo partly drawn) [Glc6P], the “inhibition of the enzyme” value in experiment [3] (setting [9]) and in experiment [4] (acceptor D-glucose) was “inhibit” throughout. With `[Cl-].[Na+]` [NaCl], the “inhibits above (concentration)” value in experiment [8] is recorded as “NaCl above 100 mM inhibits. Mol. weight: 59000”. Regarding `O=P(O)(O)OP(=O)(O)OP(=O)(O)O` [TriPoly(P)], the “inhibition of the enzyme” value in experiment [4] (acceptor D-glucose) is given as “inhibits”. For the compound `O=P(O)(O)O[C@H]1O[C@H](CO)[C@@H](O)[C@H](O)[C@H]1O` [α-D-glucose-1-phosphate], the “phosphorylation of the acceptor” value in experiment [7] is “not phosphorylated”.
